The values below come from US9505742B2, “3,4-dihydro-2H-isoquinoline-1-one and 2,3-dihydro-isoindol-1-one compounds” (Hoffmann-La Roche Inc., priority 2013, dated 2016).

As usually defined, the EC50 is the midpoint of the concentration-response curve. Low values mean a more potent agent, high ones a less potent agent.

In one data set the target is T1, human CYP11B2 (Homo sapiens, UniProt P19099).
T1 construct: The expression plasmids contains the ORF for either human/cyno CYP11B1 or CYP11B2; expressed in transfected cells
T1 sequence (P19099 25-503): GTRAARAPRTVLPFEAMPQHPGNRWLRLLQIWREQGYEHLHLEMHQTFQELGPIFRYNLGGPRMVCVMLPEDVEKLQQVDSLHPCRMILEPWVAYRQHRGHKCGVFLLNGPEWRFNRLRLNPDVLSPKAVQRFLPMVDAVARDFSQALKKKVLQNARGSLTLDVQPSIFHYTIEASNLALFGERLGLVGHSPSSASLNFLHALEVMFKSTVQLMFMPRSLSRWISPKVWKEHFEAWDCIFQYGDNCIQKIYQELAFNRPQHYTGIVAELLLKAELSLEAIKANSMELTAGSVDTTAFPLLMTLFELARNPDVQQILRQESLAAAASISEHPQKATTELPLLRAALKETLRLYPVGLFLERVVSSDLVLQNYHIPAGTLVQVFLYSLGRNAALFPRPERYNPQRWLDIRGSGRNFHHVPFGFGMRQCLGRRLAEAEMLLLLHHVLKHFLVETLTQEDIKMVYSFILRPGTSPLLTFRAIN
Kind of data set: G-402 cellular enzyme assay, human CYP11B2 (aldosterone release, HTRF). The class given is cell-based. As to conditions: G-402 cells expressing human CYP11B2; 1 μM Deoxycorticosterone. (Time-resolved FRET reads energy transfer from a long-lived donor to a nearby acceptor.)

The next data set has as its target T2, human CYP11B1 (Homo sapiens, UniProt P15538).
T2 construct: The expression plasmids contains the ORF for either human/cyno CYP11B1 or CYP11B2; expressed in transfected cells
T2 sequence (P15538 25-503): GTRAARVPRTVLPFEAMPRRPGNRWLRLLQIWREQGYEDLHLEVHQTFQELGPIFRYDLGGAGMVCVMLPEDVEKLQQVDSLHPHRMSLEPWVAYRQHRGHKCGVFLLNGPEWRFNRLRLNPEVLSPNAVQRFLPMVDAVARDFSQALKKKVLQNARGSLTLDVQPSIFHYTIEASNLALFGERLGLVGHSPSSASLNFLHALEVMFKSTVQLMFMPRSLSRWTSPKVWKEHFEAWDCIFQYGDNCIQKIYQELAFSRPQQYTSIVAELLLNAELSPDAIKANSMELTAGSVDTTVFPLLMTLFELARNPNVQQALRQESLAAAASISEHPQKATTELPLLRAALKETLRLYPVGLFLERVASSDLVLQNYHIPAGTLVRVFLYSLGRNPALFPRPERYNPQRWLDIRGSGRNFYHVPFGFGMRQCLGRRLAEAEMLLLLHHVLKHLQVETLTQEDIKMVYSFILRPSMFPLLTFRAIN
Kind of data set: G-402 cellular enzyme assay, human CYP11B1 (cortisol release, HTRF). The class given is cell-based. The following applies: G-402 cells expressing human CYP11B1; 1 μM Deoxycortisol.

The conditions of data set [1]: rat CKD model, cited from earlier work; for plasma aldosterone: FAD286 4 weeks, spironolactone 4 and 8 weeks of treatment.
The conditions of data set [2]: rats with experimental heart failure; cited from earlier work.
The target of the next data set is CYP11B2 (Homo sapiens, UniProt P19099). As to conditions: patients with primary aldosteronism, cited from earlier work.

In the case of `CCCS(=O)(=O)N1CCC(F)(c2cncc(N3C(=O)c4ccc(OC)nc4C3(C)C)c2)CC1` [Example 43, 6-[5-(4-Fluoro-1-propylsulfonyl-4-piperidyl)-3-pyridyl]-2-methoxy-7,7-dimethyl-pyrrolo[3,4-b]pyridin-5-one], the EC50 worked out at 21 nM on human CYP11B2 and 1900 nM at human CYP11B1.

As for `COc1ccc2c(n1)C(C)(C)N(c1cncc(C3(F)CCN(C(=O)c4nccn4C)CC3)c1)C2=O` [Example 44, 6-[5-[4-Fluoro-1-(1-methylimidazole-2-carbonyl)-4-piperidyl]-3-pyridyl]-2-methoxy-7,7-dimethyl-pyrrolo[3,4-b]pyridin-5-one], the EC50 at human CYP11B2 came to 4 nM; at human CYP11B1 it was 8 nM.

For `COc1ccc2c(n1)C(C)(C)N(c1cncc(C3(F)CCN(S(=O)(=O)C4CC4)CC3)c1)C2=O` [Example 45, 6-[5-(1-Cyclopropylsulfonyl-4-fluoro-4-piperidyl)-3-pyridyl]-2-methoxy-7,7-dimethyl-pyrrolo[3,4-b]pyridin-5-one], the EC50 on human CYP11B2 turned out to be 30 nM; at human CYP11B1, 1250 nM.

For `CCS(=O)(=O)N1CCC(c2cncc(N3C(=O)c4ccc(OC)nc4C3(C)C)c2)CC1` [Example 46, 6-[5-(1-Ethylsulfonyl-4-piperidyl)-3-pyridyl]-2-methoxy-7,7-dimethyl-pyrrolo[3,4-b]pyridin-5-one], the EC50 on human CYP11B2 turned out to be 23 nM; at human CYP11B1, 1920 nM.

Consider `COc1ccc2c(n1)C(C)(C)N(c1cncc(C3CCN(C(=O)c4cnn(C)c4)CC3)c1)C2=O` [Example 47, 2-Methoxy-7,7-dimethyl-6-[5-[1-(1-methylpyrazole-4-carbonyl)-4-piperidyl]-3-pyridyl]pyrrolo[3,4-b]pyridin-5-one], for which the EC50 at human CYP11B2 was 41 nM; on human CYP11B1, 573 nM.

Turning to `COc1ccc2c(n1)C(C)(C)N(c1cncc(C3CCN(C(=O)c4cnccc4C)CC3)c1)C2=O` [Example 49, 2-Methoxy-7,7-dimethyl-6-[5-[1-(4-methylpyridine-3-carbonyl)-4-piperidyl]-3-pyridyl]pyrrolo[3,4-b]pyridin-5-one], the EC50 was 151 nM at human CYP11B2 and 1320 nM on human CYP11B1.

`N#Cc1ccc(C2CCCc3cncn32)cc1` (stereo not drawn) [FAD286]: in data set [1], the plasma aldosterone entry is listed as “reduced”; the “angiotensin II and salt-stimulated PAI-1 mRNA expression in the aorta and the heart” value is “not”; the “renal effects of angiotensin II and high salt (albuminuria, azotemia, renovascular hypertrophy, glomerular injury, PAI-1 and osteopontin mRNA, tubulointerstitial fibrosis)” value is given as “prevented these renal effects”. Besides, in data set [2], the “blood pressure and cardiovascular function and structure” value was “improved”; the “kidney function and morphology” value was “improve”.

On to `N#Cc1ccc([C@H]2CCc3cncn32)c(F)c1` [LCI699], for which, at CYP11B2 (oral), the circulating aldosterone levels entry is “significantly lower”. Moreover, on CYP11B2, the blood pressure result is given as “mildly decreased”, the hypokalemia entry is given as “corrected” and the “selectivity / effects on the glucocorticoid axis” value is “poor selectivity”.

Consider `CC(=O)S[C@@H]1CC2=CC(=O)CC[C@]2(C)[C@H]2CC[C@@]3(C)[C@@H](CC[C@@]34CCC(=O)O4)[C@H]12` [spironolactone], for which, in data set [1], the plasma aldosterone entry is “increased”; the “angiotensin II and salt-stimulated PAI-1 mRNA expression in the aorta and the heart” value is reported as “enhanced”; the “renal effects of angiotensin II and high salt (albuminuria, azotemia, renovascular hypertrophy, glomerular injury, PAI-1 and osteopontin mRNA, tubulointerstitial fibrosis)” value is given as “prevented these renal effects”.
